Square brackets hold non-standard residues; d marks the D form. Peptide text beside a SMILES is read from it. Ala(1H-tetrazol-5-yl) = N[C@@H](Cc1nnn[nH]1)C(=O)O
How the values were obtained:
[1] = tested on: neurotrophic keratitis rat model; assay: Corneal sensation (Cochet-Bonnet) in neurotrophic keratitis rat model; type: in vivo; conditions: 0.1% eye drops, capsaicin-treated rats; method and result in present tense
Procedure: (§1) A rat model was prepared, by subcutaneous administration of capsaicin in the dorsal region of rats, which elicited corneal nerve injury and attenuated corneal sensation while also leading to decreased lacrimal fluid volume and superficial punctate keratitis (SPK) (NPL 3: Investigative Ophthalmology & Visual Science (2012), vol. 53, No. 13, p. 8280-8287). The rats were given PACAP27 and its stabilized peptide eye drops, and the inhibiting effect on corneal damage was examined. The specific experiment method was as follows.
(§2) Capsaicin (product of Sigma) was dissolved in PBS containing 10% EtOH and 10% Tween80, and subcutaneously administered to the dorsal region of 4-day-old male Wistar/ST rats at a dose of 50 mg/kg·b·w.
The base was prepared by dissolving 0.3 g of trishydroxymethylaminomethane (Nacalai Tesque, Inc.) and 4.4 g of D(−)-mannitol (Nacalai Tesque, Inc.) in 100 mL of sterilized water, adding 1 N·HCl and adjusting the pH to 7. […] Each eye drops was stored at room temperature. Each eye drop was initially administered 3 weeks after administration of capsaicin, 3 times every day, in an amount of 10 μL for each eye.
Corneal sensation is measured using a Cochet-Bonnet corneal sensory meter (Handaya Shoten). […] This procedure is repeated 3 times, and the average value for the obtained filament lengths is recorded as the corneal sensation threshold (CST) for that individual.

[2] = tested on: neurotrophic keratitis rat model; assay: Corneal nerve staining, nerve density in neurotrophic keratitis rat model; type: in vivo; conditions: 0.1% eye drops, capsaicin-treated rats; method and result in present tense
Procedure: as §1, §2
The base was prepared by dissolving 0.3 g of trishydroxymethylaminomethane (Nacalai Tesque, Inc.) and 4.4 g of D(−)-mannitol (Nacalai Tesque, Inc.) in 100 mL of sterilized water, adding 1 N·HCl and adjusting the pH to 7. […] Each eye drops was stored at room temperature. […]
After euthanizing rats, the eye bulbs are extracted and immersed in Zamboni solution (product of Wako Pure Chemical Industries, Ltd.), and allowed to stand for 15 minutes at room temperature. […] The nerve density of the swirl structure in the nerve layer is quantified by conducting Sholl analysis using image analysis software (Image J).

[3] = tested on: neurotrophic keratitis rat model; assay: Superficial punctate keratitis (SPK) score in neurotrophic keratitis rat model; type: in vivo; conditions: 0.1% eye drops 3 times daily, evaluated 2 weeks after start of eye dropping; FIG. 4
Procedure: as §1
Capsaicin (product of Sigma) was dissolved in PBS containing 10% EtOH and 10% Tween80, and subcutaneously administered to the dorsal region of 4-day-old male Wistar/ST rats at a dose of 50 mg/kg·b·w. […]
SPK was evaluated 2 weeks after the start of eye dropping. […] The eye surface was then observed with a slit lamp microscope, and the degree of corneal damage was evaluated by the method of Murakami et al., Atarashii Ganka 21 (1):87-90 (2004). Specifically, the cornea was divided into 3 regions, the top, center and bottom, and a score was assigned to each region on the following scale, with the value of the total of the scores of the 3 regions being recorded as the SPK score. <Scale> 0: No punctate stains, 1: Sparse (separated punctate fluorescein stains), 2: Intermediate (between 1 and 3), 3: Dense (almost all punctate fluorescein stains adjacent).

[4] = tested on: rat trigeminal nerve cells; assay: Axon elongation effect on cultured rat trigeminal nerve cells; type: cell-based; conditions: 1 μM peptide, 24 hours; N=8; Dunnett's test vs control P<0.001; FIG. 5
Procedure: Rats (Sic: Sprague-Dawley, 17-day-old, including female and male) purchased from Japan SLC, Inc. were euthanized by carbon dioxide gas inhalation and the trigeminal ganglion was harvested. The harvested trigeminal ganglion was washed with Hanks' balanced salt solution (HBSS) and then treated with collagenase A (Roche) for 30 minutes at 37° C. A neuron dispersion (Wako) was then used according to protocol for dispersion of the cells. Debris removal solution (Miltenyi biotec) and Myelin removal beads II (Miltenyi biotec) were used according to protocol to remove the debris and myelin. After suspending the isolated trigeminal nerve cells in culture solution, they were seeded onto a polylysine/laminin-coated 8-well chamber slide (Corning) at 2.5×10^3 cells/well. The culture solution used was Neurobasal-A containing B27 supplement (final concentration: 2%) and GlutaMAX (final concentration: 2 mM) and penicillin/streptomycin (final concentration: 1%). The culturing conditions were a carbon dioxide concentration of 5%, an air concentration of 95%, a humidity of 100% and a temperature of 37° C. […] The control was replaced with peptide-free culture solution. Culture medium replacement was followed by further culturing for 24 hours.
The culture medium was replaced with peptide-containing culture solution, and the rat trigeminal nerve cells cultured for 24 hours were immersed in a 2% paraformaldehyde solution at room temperature for 20 minutes for fixing. The cells were washed with PBS, and then 2% bovine serum albumin containing 0.1% TritonX-100 was added and reaction was conducted for 30 minutes. After washing with PBS, it was reacted with phospho-neurofilament H antibody (Merck, MAB1592-C) specifically recognizing neurofilaments forming the neuron bodies and neurites, for 1 hour at room temperature. After reaction for 1 hour, a fluorescent-labeled secondary antibody (Invitrogen Corp., #A-11031) was reacted at room temperature for 1 hour for fluorescent staining of the sample, and the stained cells were observed under a fluorescent microscope. The stained cell image was captured as an image from the fluorescent microscope and loaded into a computer.
In order to evaluate the extent of neurite formation by the rat trigeminal nerve cells, cells with neurites having lengths of at least twice the cell body diameter in the stained cell image in the computer were counted as neurite-forming cells, and the percentage (%) of this number of cells over the total cell count was calculated (Otori Y. Wei J Y, Barnstable C J. Invest. Ophthalmol Vis Sci (1998) 39, 972-981). The significant difference with respect to the control was determined by Dunnett's test (P<0.001).

Structure (SMILES)	corneal sensation threshold (CST) [1]	corneal nerve density (Sholl analysis) [2]	SPK score [3]	axon elongation (percentage of neurite-forming cells) [4]
CC[C@H](C)[C@H](NC(=O)CNC(=O)[C@H](CC(=O)O)NC(=O)[C@H](CO)NC(=O)[C@@H](N)Cc1cnc[nH]1)C(=O)N[C@@H](Cc1ccccc1)C(=O)N[C@H](C(=O)N[C@@H](CC(=O)O)C(=O)N[C@@H](CO)C(=O)N[C@@H](Cc1ccc(O)cc1)C(=O)N[C@@H](CO)C(=O)N[C@@H](CCCNC(=N)N)C(=O)N[C@@H](Cc1ccc(O)cc1)C(=O)N[C@@H](CCCNC(=N)N)C(=O)N[C@@H](CCCCN)C(=O)N[C@@H](CCC(N)=O)C(=O)N[C@@H](CCSC)C(=O)N[C@@H](C)C(=O)N[C@H](C(=O)N[C@@H](CCCCN)C(=O)N[C@@H](CCCCN)C(=O)N[C@@H](Cc1ccc(O)cc1)C(=O)N[C@@H](CC(C)C)C(=O)N[C@@H](C)C(=O)N[C@@H](C)C(=O)N[C@H](C(=O)N[C@@H](CC(C)C)C(N)=O)C(C)C)C(C)C)[C@@H](C)O [Peptide 1, reference compound]	improves reduction in corneal sensation	improves reduction in nerve density	improved the increased SPK score	exhibited axon elongation-promoting effects
CC[C@H](C)[C@H](NC(=O)CNC(=O)[C@H](Cc1nnn[nH]1)NC(=O)[C@H](CO)NC(=O)[C@H](Cc1c[nH]cn1)NC(C)=O)C(=O)N[C@@H](Cc1ccccc1)C(=O)N[C@H](C(=O)N[C@@H](Cc1nnn[nH]1)C(=O)N[C@@H](CO)C(=O)N[C@@H](Cc1ccc(O)cc1)C(=O)N[C@@H](CO)C(=O)N[C@@H](CCCNC(=N)N)C(=O)N[C@@H](Cc1ccc(O)cc1)C(=O)N[C@@H](CCCNC(=N)N)C(=O)N[C@@H](CCCCN)C(=O)N[C@@H](CCC(N)=O)C(=O)N[C@@H](CC(C)C)C(=O)N[C@@H](C)C(=O)N[C@H](C(=O)N[C@@H](CCCCN)C(=O)N[C@@H](CCCCN)C(=O)N[C@@H](Cc1ccc(O)cc1)C(=O)N[C@@H](CC(C)C)C(=O)N[C@@H](C)C(=O)N[C@@H](C)C(=O)N[C@H](C(=O)N[C@@H](CC(C)C)C(N)=O)C(C)C)C(C)C)[C@@H](C)O [Peptide 9] (Ac-HS[Ala(1H-tetrazol-5-yl)]GIFT[Ala(1H-tetrazol-5-yl)]SYSRYRKQLAVKKYLAAVL-NH2)	improves reduction in corneal sensation	improves reduction in nerve density	improved the increased SPK score	exhibited axon elongation-promoting effects

From patent US20220202905A1, “COMPOSITION FOR PREVENTING OR TREATING NEUROTROPHIC KERATITIS WHICH CONTAINS PACAP PEPTIDE OR STABILIZED PACAP PEPTIDE” (SENJU PHARMACEUTICAL CO., LTD., priority 2019, published 2022)
